US5631226A, “Treatment to reduce edema” (The Regents of the University of California, priority 1995, dated 1997)
No end group written: not given here.

How the values were obtained:
[1] = tested on: vascular permeability produced by cold injury in brain; assay: Cold (freeze) injury to brain, vascular leakage by Monastral blue staining; assay type: in vivo, rat
Text: An in vivo model of injury to study brain edema has been developed as a reproducible edema model, which has the features of immediate cortical damage followed by the subsequent development of brain edema. This model is described by Chan et al., Brain Research, 277, pp. 329-337 (1983). The model uses rats which are anesthetized. A 2.5 cm incision is made over the sagittal suture and the bone of the right hemisphere exposed. A 60 mm^2 plate attached to a brass cup filled with dry ice-acetone mixture, with a temperature of -50° C., is applied to the rat skull for one minute. The animals are sacrificed at various intervals after the onset of cold-injury. A dye is administered intravenously before the freezing. Cortical slices are then obtained of the brain.
Sixteen male rats were randomly divided into eight pairs and one rat in each pair received either saline or CRF (subcutaneously twice at 30 μg/kg, 30 min and 10 min before cold injury). The animals were anesthetized with sodium pentobarbital, 60 mg/kg intraperitoneally, and injected with Monastral blue, 60 mg/kg intravenously. A cold probe was applied onto the skull for four minutes and the brains taken out one hour after cold injury. The staining of brain tissues with Monastral blue, a colloidal pigment that gets trapped between the albuminal surface of the endothelial cell and the basement membrane, was proportional to the degree of vascular leakage. The results from the first pair are shown as FIG. 1.
The size of the lesion, measured as area in mm^2, and the degree of staining intensity, were quantified using an image-analysis software program called JAVA (Jandel Corporation, San Rafael, Calif.). The stain intensity, given in arbitrary units, was internally calibrated using Monastral blue solutions (1-30 mg/ml) placed on white filter paper. Values are mean ±S.E.M.

[2] = tested on: vascular leakage after musculature injury (celiotomy); assay: Vascular leakage after celiotomy (4 cm midline incision through abdominal muscle wall); assay type: in vivo, rat; details: for Lesions Size: tissues 0.5 hour after surgery
Description: Experiments were conducted on male Sprague-Dawley rats 243±15 gm (S. D., Simonsen Labs., Gilroy, Calif.) anesthetized with sodium pentobarbital, 60 mg/kg i.p. Monastral blue, 60 mg/kg i.v., was injected 0.2 ml/100 g, 3 minutes before a 4 cm midline incision through the abdominal muscle wall (celiotomy). Saline or CRF was administered to randomized pairs with N=8 rats per group. The size of the lesion, measured as area in mm^2, and its light intensity, were quantified using the JAVA image-analysis software program. The light intensity, given in arbitrary units, was internally calibrated using Monastral blue solutions (1-30 mg/ml) placed on white filter paper. Values are mean±S.E.M. FIG. 2 illustrates the respective amount of vascular permeability for one pair of rats (control and treated). Tables III and IV set out data from these experiments.
CRF: inhected at various doses subcutaneously 30 minutes before a 4 cm
middle incision, tissues taken 0.5 hour after surgery.
CRF: 30 μg/kg s.c. injected 2 hour before a 4 cm midline incision,
tissues taken 0.5 hour after surgery

[3] = tested on: brain edema after freeze injury to cerebral cortex; assay: Freeze injury of cerebral cortex, water and sodium content as index of brain edema; assay type: in vivo, rat; details: CRF 30 μg/kg s.c. 2x, tissues 3 hr after injury, ±S.E.M., N=5
Description: In a second set of experiments, the brain surface, namely the cerebral cortex, was injured by freezing and the water and sodium content were measured in the cerebral cortex and in the basal ganglia, a part of the brain away from the freeze zone. The water and sodium content of the brain tissue served as an index of brain edema. After freeze injury, the water and sodium content of the cerebral cortex were evaluated relative to non-frozen tissues. CRF administered in two separate doses of 30 μg/kg subcutaneously, one dose 15 minutes before the injury and the second dose 90 minutes after the first dose, inhibited the two indices of brain edema.
Male SpragueDawley rats, 300-325 g, anesthetized with
ketamineacepromazine, were injected saline or CRF (30 μg/kg s.c. 2x)
and injury to cerebral cortex was produced by applying a cold probe to th
skull for 1 min. Brain tissues were obtained 3 hr later and analyzed for
water and sodium content.

[4] = tested on: edema-producing properties of inflammatory mediators in rat pawskin; details: mediators injected into the rat pawskin; previously shown; cited from earlier work
[5] = tested on: Pseudomonas; assay: Neutropenic rat model of sepsis (Pseudomonas infection), survival; assay type: in vivo; details: CRF 100 μg/kg i.v. twice a day for four days after onset of fever; day 11; 9/15; controls 100% mortality at 8 days
Text: The neutropenic rat model of sepsis, designed to mimic the systemic inflammatory response syndrome in humans, is described by Collins et al. from The Journal of Infectious Diseases, 159:6 (June 1989) and The Journal of Clinical Investigation, 88:885 (September 1991). […] The animals die from overwhelming infection within 7 to 9 days of infection and examination of the tissues with histological and pathological techniques reveal the characteristic organic manifestations of the systemic inflammatory response syndrome, namely, organ edema and tissue necrosis.
In a typical experiment, 10 rats serving as controls received saline and 15 rats received CRF at a dose of 100 μg/kg intravenously, given twice a day for four days after the onset of fever. At the end of 8 days, all of the animals in the control group were dead (100% mortality). By contrast, 60% (9/15) of the CRF group were still alive at day 11 when the experiment was concluded. The difference between the saline and CRF treated groups were statistically significant (P<0.002).

[6] = tested on: vascular leakage produced by PAF-acether; assay: Vascular leakage produced by PAF-acether injected subcutaneously into the abdomen; assay type: in vivo, rat; details: CRF 30 μg/kg s.c. 30 minutes before PAF-acether
Description: CRF: 30 μg/kg s.c. injected 30 minutes before subcutaneous injection o
PAFacether (1 μg/0.1 ml/rat) into the abdomen; muscle removed 0.5 hour

[7] = tested on: blood pressure; details: prior art report; cited from earlier work
[8] = tested on: ACTH secretion; details: prior art report; cited from earlier work
[9] = CRF 15 μg/kg s.c. 30 minutes before incision
[10] = CRF 30 μg/kg s.c. 30 minutes before incision
[11] = CRF 60 μg/kg s.c. 30 minutes before incision

Compound | lesion size of CRF-treated group relative to saline-treated group ([1]; CRF 30 μg/kg s.c. twice before cold injury) | Intensity (Monastral blue stain intensity) ([1]; CRF 30 μg/kg s.c. twice, 30 min and 10 min before cold injury, brains taken 1 hour after injury, mean ± S.E.M.) | blinded observer correctly assigns brains to saline or CRF group (more vs less damaged) ([1]; eight pairs of rats) | lesion size relative to saline-treated group [2, 9] | Lesions Size [2, 9] | lesion size relative to saline-treated group [2, 10] | Lesions Size [2, 10] | lesion size relative to saline-treated group ([2]; CRF 30 μg/kg s.c. 2 hour before incision) | lesion size relative to saline-treated group [2, 11] | Lesions Size [2, 11] | SODIUM mEq/kg dry ([3]; basal ganglia (non-injured)) | WATER CONTENT % ([3]; basal ganglia (non-injured)) | SODIUM mEq/kg dry ([3]; cerebral cortex (injured)) | WATER CONTENT % ([3]; cerebral cortex (injured)) | effect on edema-producing properties of inflammatory mediators [4] | animals still alive (survival) [5] | muscle lesion size relative to saline-treated control group [6] | effect on blood pressure [7] | effect on ACTH secretion [8]
CRF: 41 amino acid neuropeptide present in brain and peripheral nerve endings; stimulates ACTH release from pituitary cells (SEEPPISLDLTFHLLREVLEMARAEQLAQQAHSNRKLMEII; not fully specified; ends and bridges not checked; UniProt P06850 154-194, looked up) | 44% | 2.0 ± 0.05 arbitrary units | 8 out of 8 | 63% | 1031 ± 44 | 42% | 676 ± 47 | 59% | 29% | 468 ± 19 | 215 ± 9 mEq/kg dry | 76 ± 1% | 271 ± 8 mEq/kg dry | 77 ± 4% | antagonize the edema-producing properties | 60% | 44% |  | 
CC[C@H](C)[C@H](NC(=O)[C@@H](NC(=O)[C@H](CC(=O)O)NC(=O)[C@H](CC(C)C)NC(=O)[C@H](CC(C)C)NC(=O)[C@H](CC(C)C)NC(=O)[C@H](CCCNC(=N)N)NC(=O)[C@H](CC(N)=O)NC(=O)[C@H](CC(N)=O)NC(=O)[C@H](C)NC(=O)[C@H](C)NC(=O)[C@H](CCC(N)=O)NC(=O)[C@H](CCC(N)=O)NC(=O)[C@H](CCCCN)NC(=O)[C@H](CCC(=O)O)NC(=O)[C@H](CCCCN)NC(=O)[C@H](CCC(=O)O)NC(=O)[C@H](CCC(N)=O)NC(=O)[C@H](CCCCN)NC(=O)[C@H](CCC(=O)O)NC(=O)[C@@H](NC(=O)[C@H](CCC(=O)O)NC(=O)[C@@H](NC(=O)[C@H](CCSC)NC(=O)[C@H](CCCCN)NC(=O)[C@H](CCCNC(=N)N)NC(=O)[C@H](CC(C)C)NC(=O)[C@H](CC(C)C)NC(=O)[C@H](CCC(=O)O)NC(=O)[C@H](CC(C)C)NC(=O)[C@H](CO)NC(=O)[C@H](CC(C)C)NC(=O)[C@H](CC(=O)O)NC(=O)[C@@H](NC(=O)[C@H](CO)NC(=O)[C@@H](NC(=O)[C@@H]1CCCN1C(=O)[C@@H]1CCCN1C(=O)CNC(=O)[C@@H]1CCC(=O)N1)[C@@H](C)CC)[C@@H](C)CC)[C@@H](C)CC)[C@@H](C)CC)[C@@H](C)O)C(N)=O [Sauvagine] |  |  |  |  |  |  |  |  |  |  |  |  |  |  |  |  |  | lowering blood pressure | stimulating the secretion of ACTH and β-endorphin
